Laboratory results: publication PMC6876276 (Cell Chemical Biology, 2019)

Molecular target: T1, SHMT1 (Homo sapiens, UniProt P34896)
T1 sequence (P34896 2-483): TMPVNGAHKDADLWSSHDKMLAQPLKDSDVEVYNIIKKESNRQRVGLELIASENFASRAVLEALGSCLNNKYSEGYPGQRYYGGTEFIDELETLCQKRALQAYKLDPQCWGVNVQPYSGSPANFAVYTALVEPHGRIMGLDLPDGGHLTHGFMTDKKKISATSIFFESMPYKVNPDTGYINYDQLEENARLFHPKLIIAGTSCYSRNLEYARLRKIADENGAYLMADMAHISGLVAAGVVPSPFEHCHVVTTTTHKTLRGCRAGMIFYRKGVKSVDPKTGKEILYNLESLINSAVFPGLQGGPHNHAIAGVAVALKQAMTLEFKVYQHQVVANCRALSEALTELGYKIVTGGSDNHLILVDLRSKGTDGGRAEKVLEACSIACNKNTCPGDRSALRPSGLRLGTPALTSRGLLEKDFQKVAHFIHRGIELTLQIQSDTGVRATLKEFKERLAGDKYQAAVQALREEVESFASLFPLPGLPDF
Test: thermal shift assay, SYPRO orange
Type: binding
Conditions: 2 μM apo-SHMT1, SEC buffer; covalent internal aldimine (reversible)

Cc1ncc(COP(=O)(O)O)c(C=O)c1O [PLP, pyridoxal 5′-phosphate]
melting temperature: selective increase in melting temperature of apo-SHMT1 upon incubation with increasing PLP amounts
